# Reference: patent publication US12318393B2, “Modulators of orphan nuclear receptors for NASH and other metabolic disorders” (Emory University, priority 2018, dated 2025)
# What was measured:
# [1] = Cellular toxicity assay in CEM cells; format: cell-based; conditions: human, CEM (human lymphoblastoid) cells, read-out: Cytotoxicity (IC50, μM) CEM
# Experimental: The toxicity of the compounds was assessed in human PBM, CEM (human lymphoblastoid), and Huh-7 cells, as described previously (see Schinazi R. F., Sommadossi J.-P., Saalmann V., Cannon D. L., Xie M.-Y., Hart G. C., Smith G. A. & Hahn E. F. Antimicrob. Agents Chemother. 1990, 34, 1061-67). Cycloheximide was included as positive cytotoxic control, and untreated cells exposed to solvent were included as negative controls. The cytotoxicity IC50 was obtained from the concentration-response curve using the median effective method described previously (see Chou T.-C. & Talalay P. Adv. Enzyme Regul. 1984, 22, 27-55; Belen'kii M. S. & Schinazi R. F. Antiviral Res. 1994, 25, 1-11).
# [2] = tested on: CD4+ Th17 cells; experiment: Modulation of Th17 populations in human PBMCs (flow cytometry); format: cell-based; conditions: 10 μM, 3 day assay
# Experimental: Human peripheral blood mononuclear cells (PBMCs) were isolated from four healthy donors. Four experiments were conducted and analyzed by flow cytometry over 3 day assay. The control group had no drug treatment, a second were treated with 10 μM Compound 1, a third group was stimulated with PHA/IL-2 without treatment, and the fourth group was stimulated with PHA/IL-2 and incubated with 10 μM Compound 1. […] Further, Compound 1 has no effect on Th17 populations in the absence of PHA/IL-2 stimulation.
# [3] = tested on: Sgp130FC mice; experiment: Liver triglycerides and lipid accumulation in Sgp130FC mice (NASH model); format: in vivo
# Experimental: Sgp130FC mice specifically blocks IL-6 trans-signaling without affecting classic IL-6 signaling. […] Nine-month-old Sgp130FC mice were injected i.p. with Compound 1 (7.5 mg/kg) or vehicle control twice a week for four weeks (total of 8 injections). The mice were sacrificed after 4 weeks, triglyceride levels were measured from liver and skeletal muscle and hepatic lipid accumulation was visualized using H&E staining.
# Compound 1 and AntagomiR injections to mice. C57BL/6 male mice, 7-8 weeks old, or Sgp130FC, 9-month-old male mice, were injected i.p. with 7.5 mg/kg Compound 1 dissolved in saline and 3% DMSO. Saline was injected as control. Mice were hydrodynamic tail vain injected with antagomiR-122 or antagomiR-control (negative control) (5 μg/mouse in 1.5 ml saline). Mice were sacrificed according to the legend of the figure describing the experimental results and the livers, white adipose and skeletal muscle tissues were frozen in liquid nitrogen or in OCT embedded frozen blocks, for further RNA and histologic analysis. AntagomiRs were obtained from Sigma Aldrich, see Table 3.
# Triglycerides and β-hydroxybutyrate quantification. To determine the liver and muscle lipid content, muscle and liver tissues (40-80 mg) were homogenized in 0.5 ml of chloroform: Tris solution (v/v, 1:1), the homogenate was transferred to 1 ml of chloroform: methanol solution (v/v, 2:1) centrifuged at 3000 rpm for 10 min. The organic phase was mixed with 5% Triton X100 in chloroform, dried and re-dissolved in water. After lipid extraction, TG concentration in samples was measured with Triglyceride Quantification Kit (BioVision), according to the manufactures instructions. β-hydroxybutyrate was determined utilizing commercial colorimetric kits (BioVision) directly from plasma samples.
# [4] = biological target: T1, RORα (Homo sapiens, UniProt P35398); experiment: RORα activity by luciferase reporter (miR-122 promoter with WT or mutated RORE) in Huh-7 cells; format: cell-based; conditions: 24 hours of treatment
# T1 construct: endogenous in cells; host or cells: Huh-7 (human hepatocellular carcinoma cells)
# T1 sequence (P35398 1-523): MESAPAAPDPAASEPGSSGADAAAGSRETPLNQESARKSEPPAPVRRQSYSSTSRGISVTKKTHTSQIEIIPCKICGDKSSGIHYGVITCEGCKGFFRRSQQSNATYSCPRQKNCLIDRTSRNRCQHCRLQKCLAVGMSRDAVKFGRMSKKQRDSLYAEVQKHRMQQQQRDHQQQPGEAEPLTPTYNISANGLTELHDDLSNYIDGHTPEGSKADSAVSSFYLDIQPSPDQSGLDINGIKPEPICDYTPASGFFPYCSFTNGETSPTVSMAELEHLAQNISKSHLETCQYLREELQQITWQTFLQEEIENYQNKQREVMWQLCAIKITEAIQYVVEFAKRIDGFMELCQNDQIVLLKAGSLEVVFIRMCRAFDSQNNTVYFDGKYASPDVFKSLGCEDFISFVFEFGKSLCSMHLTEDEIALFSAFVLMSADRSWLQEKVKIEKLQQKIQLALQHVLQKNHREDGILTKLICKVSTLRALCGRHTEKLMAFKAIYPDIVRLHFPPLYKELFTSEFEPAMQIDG
# Experimental: Huh-7 cells were transfected with a luciferase reporter plasmid containing the miR-122 promoter (extends to −900 from the transcription start site) with intact wild-type (WT) RORα response element (RORE) or mutated RORE (mut). The cells were treated with Compound 1 one day (24 hours) post-transfection at the indicated concentrations. Luciferase expression was measured after 24 hours of treatment and normalized to Renilla Luciferase activity expressed from a co-transfected pRL plasmid. The pRL Vector, which provides constitutive expression of Renilla luciferase, was used in combination with a firefly luciferase vector to co-transfect cells. […]
# Luciferase assay. […] Firefly and Renilla luciferase activity was assessed using the Dual Luciferase Reporter Assay system (Promega). Readings were taken in triplicates on a Mithras LB 940 Luminometer (Berthold Technologies). […]
# Following transfections, the cells were lysed with passive lysis buffer (Cat #E1941; Promega), shaking for 20 min at RT and transferred into appropriate 96-well plate. Firefly and Renilla luciferase activity was assessed using the Dual Luciferase Reporter Assay system (Cat #E1910; Promega) on a luminometer Mithras 2000 (Centro XZ, LB960, Berthold Technologies, Bad Wildbad, Germany). […] Readings were taken in triplicate.
# [5] = 7.5 mg/kg i.p. twice/week, four weeks
compound,measurement,setting,value
O=C1Nc2cc(C(=O)N3CCC(Cc4ccccc4)CC3)ccc2Nc2ccccc21 [Compound 1],IC50,[1],11 µM
same,total viability of CD4+ T cells,[2]; even under PHA/IL-2 stimulation,no effect
same,"Th17 total population, presence of PHA/IL-2 stimulation",[2]; relative to vehicle-control,decreases
same,"Th17 populations, absence of PHA/IL-2 stimulation",[2]; unstimulated,no effect
same,hepatic lipid accumulation and droplet formation (H&E staining),[3]; 7.5 mg/kg i.p. twice a week for four weeks,markedly reduces
same,reduction of liver triglyceride levels,"[3]; 7.5 mg/kg i.p. twice a week for four weeks, vs saline",approximately 3 fold
same,MicroRNA-18 plasma and liver levels (negative control),[3]; [5],not affected
same,liver and muscle triglyceride levels,[3]; [5],reduces
same,"miR-122 expression (plasma, liver)",[3]; [5],increases
same,"luciferase expression, mutated RORE","[4]; Huh-7, miR-122 promoter reporter with mutated RORE",negates activity
same,"luciferase expression, WT RORE","[4]; Huh-7, miR-122 promoter reporter with wild-type RORE",dose-dependent increase
